Experimental data published in ChEMBL document CHEMBL4138253, “Synthesis and Biological Evaluation of a Series of Bile Acid Derivatives as FXR Agonists for Treatment of NASH” (ACS Med Chem Lett, 2017).

Assays:
Bile acid receptor [1] = target: T1, Bile acid receptor (Homo sapiens, UniProt Q96RI1); experiment: Agonist activity at recombinant human GST-tagged FXR LBD (193 to 472 residues) expressed in baculovirus-infected insect cells assessed as recruitment of biotinylated SRC1 peptide measured after 1 hr by Alphascreen assay
T1 sequence (Q96RI1 whole entry): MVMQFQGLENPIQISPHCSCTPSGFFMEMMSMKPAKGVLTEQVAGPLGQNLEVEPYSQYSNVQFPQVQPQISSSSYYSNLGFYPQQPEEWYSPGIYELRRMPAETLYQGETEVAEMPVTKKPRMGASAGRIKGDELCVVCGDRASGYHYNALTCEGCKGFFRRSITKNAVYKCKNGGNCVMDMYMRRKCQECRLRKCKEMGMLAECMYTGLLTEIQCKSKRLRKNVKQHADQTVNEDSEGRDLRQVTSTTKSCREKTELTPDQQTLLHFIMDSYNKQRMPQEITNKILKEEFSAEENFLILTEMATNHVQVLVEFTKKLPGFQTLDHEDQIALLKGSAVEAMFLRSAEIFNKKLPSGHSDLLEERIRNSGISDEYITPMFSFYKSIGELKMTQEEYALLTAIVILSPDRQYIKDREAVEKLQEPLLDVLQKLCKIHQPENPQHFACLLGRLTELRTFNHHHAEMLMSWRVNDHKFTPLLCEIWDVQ

[2] = target: T2, Bile acid receptor (Homo sapiens) (UniProt Q96RI1); experiment: Agonist activity at recombinant human GST-tagged FXR LBD (193 to 472 residues) expressed in baculovirus-infected insect cells assessed as recruitment of biotinylated SRC1 peptide measured after 1 hr by Alphascreen assay relative to CDCA
T2 sequence (whole entry): T1 sequence (Q96RI1 whole entry)

[3] = target: T3, G-protein coupled bile acid receptor 1 (Homo sapiens, UniProt Q8TDU6); experiment: Agonist activity at human TGR5 expressed in HEK293 cells assessed as increase in intracellular cAMP level after 1 hr by TR-FRET assay; format: functional, cell-based
T3 sequence (Q8TDU6 whole entry): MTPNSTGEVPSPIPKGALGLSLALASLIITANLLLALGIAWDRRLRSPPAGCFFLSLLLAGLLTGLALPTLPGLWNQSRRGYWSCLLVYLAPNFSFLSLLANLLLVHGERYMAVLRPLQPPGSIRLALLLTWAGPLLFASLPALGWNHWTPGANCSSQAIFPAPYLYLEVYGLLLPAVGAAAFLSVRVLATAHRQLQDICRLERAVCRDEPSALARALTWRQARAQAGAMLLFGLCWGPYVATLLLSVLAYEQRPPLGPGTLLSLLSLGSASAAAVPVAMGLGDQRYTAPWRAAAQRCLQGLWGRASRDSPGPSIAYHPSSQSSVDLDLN

Homo sapiens = species on record: Homo sapiens; experiment: Selectivity ratio of EC50 for recombinant human GST-tagged FXR LBD (193 to 472 residues) expressed in baculovirus-infected insect cells to EC50 for human TGR5 expressed in HEK293 cells
[4] = target: T2, Bile acid receptor (Homo sapiens); experiment: Agonist activity at FXR (unknown origin) measured after 16 hrs in presence of CCF4-AM dye by cell-based GeneBlazer FRET assay relative to CDCA
Bile acid receptor [5] = target: T1, Bile acid receptor; experiment: Agonist activity at FXR (unknown origin) measured after 16 hrs in presence of CCF4-AM dye by cell-based GeneBlazer FRET assay

SMILES	EC50 (Bile acid receptor [1])	Efficacy [2]	EC50 [3]	Efficacy [4]	EC50 (Bile acid receptor [5])	Ratio EC50 (Homo sapiens)
CC[C@H]1[C@@H](O)[C@@H]2[C@H](CC[C@]3(C)[C@@H]([C@H](C)CCNC(=O)OCc4ccccc4)CC[C@@H]23)[C@@]2(C)CC[C@@H](O)C[C@@H]12	300 nM	130%	–	–	–	–
CC[C@H]1[C@@H](O)[C@@H]2[C@H](CC[C@]3(C)[C@@H]([C@H](C)CCC(=O)NCC(=O)O)CC[C@@H]23)[C@@]2(C)CC[C@@H](O)C[C@@H]12	290 nM	135%	–	–	–	–
CC[C@H]1[C@@H](O)[C@@H]2[C@H](CC[C@]3(C)[C@@H]([C@H](C)CCC(=O)O)CC[C@@H]23)[C@@]2(C)CCC3(CC3)C[C@@H]12	700 nM	68%	–	–	–	–
CC[C@H]1[C@@H](O)[C@@H]2[C@H](CC[C@]3(C)[C@@H]([C@H](C)CCNS(=O)(=O)c4ccccc4)CC[C@@H]23)[C@@]2(C)CC[C@@H](O)C[C@@H]12	470 nM	117%	–	–	–	–
CC[C@H]1[C@@H](O)[C@@H]2[C@H](CC[C@]3(C)[C@@H]([C@H](C)CCNC(=O)c4ccccn4)CC[C@@H]23)[C@@]2(C)CC[C@@H](O)C[C@@H]12	30 nM	88%	–	–	–	–
CC[C@H]1[C@@H](O)[C@@H]2[C@H](CC[C@]3(C)[C@@H]([C@H](C)CCC(=O)O)CC[C@@H]23)[C@@]2(C)CCC(F)(F)C[C@@H]12	1100 nM	109%	–	–	–	–
CC[C@H]1[C@@H](O)[C@@H]2[C@H](CC[C@]3(C)[C@@H]([C@H](C)CCC(=O)O)CC[C@@H]23)[C@@]2(C)CCCC[C@@H]12	400 nM	126%	–	–	–	–
CC[C@H]1[C@@H](O)[C@@H]2[C@H](CC[C@]3(C)[C@@H]([C@H](C)CCCNS(=O)(=O)c4ccccc4)CC[C@@H]23)[C@@]2(C)CC[C@@H](O)C[C@@H]12	230 nM	79%	–	–	–	–
CC[C@H]1[C@@H](O)[C@@H]2[C@H](CC[C@]3(C)[C@@H]([C@H](C)CCCNS(C)(=O)=O)CC[C@@H]23)[C@@]2(C)CC[C@@H](O)C[C@@H]12	110 nM	85%	–	–	–	–
CC[C@H]1[C@@H](O)[C@@H]2[C@H](CC[C@]3(C)[C@@H]([C@H](C)CCC(=O)O)CC[C@@H]23)[C@@]2(C)CC[C@@H](OC)C[C@@H]12	1800 nM	108%	–	–	–	–
CC[C@H]1[C@@H](O)[C@@H]2[C@H](CC[C@]3(C)[C@@H]([C@H](C)CCC(=O)O)CC[C@@H]23)[C@@]2(C)CCC(C)C[C@@H]12 (some centres not stated)	1500 nM	49%	–	–	–	–
CC[C@H]1[C@@H](O)[C@@H]2[C@H](CC[C@]3(C)[C@@H]([C@H](C)CCC4NC(=O)NC4=O)CC[C@@H]23)[C@@]2(C)CC[C@@H](O)C[C@@H]12 (some centres not stated)	2700 nM	202%	–	–	–	–
CC[C@H]1[C@@H](O)[C@@H]2[C@H](CC[C@]3(C)[C@@H]([C@H](C)CCc4nn[nH]n4)CC[C@@H]23)[C@@]2(C)CC[C@@H](O)C[C@@H]12	–	153%	–	–	–	30
CC[C@H]1[C@@H](O)[C@@H]2[C@H](CC[C@]3(C)[C@@H]([C@H](C)CCC(=O)O)CC[C@@H]23)[C@@]2(C)Cc3cn[nH]c3C[C@@H]12	300 nM	136%	–	–	–	–

Continued, in another order:

EC50 (Bile acid receptor [1])	Efficacy [2]	EC50 [3]	Efficacy [4]	EC50 (Bile acid receptor [5])	SMILES	Ratio EC50 (Homo sapiens)
600 nM	142%	–	–	–	CC[C@H]1[C@@H](O)[C@@H]2[C@H](CC[C@]3(C)[C@@H]([C@H](C)CCC(N)=O)CC[C@@H]23)[C@@]2(C)CC[C@@H](O)C[C@@H]12	–
70 nM	104%	420 nM	–	–	CC[C@H]1[C@@H](O)[C@@H]2[C@H](CC[C@]3(C)[C@@H]([C@H](C)CCNC(=O)NC4CC4)CC[C@@H]23)[C@@]2(C)CC[C@@H](O)C[C@@H]12	6
90 nM	109%	240 nM	167%	80 nM	CC[C@H]1[C@@H](O)[C@@H]2[C@H](CC[C@]3(C)[C@@H]([C@H](C)CCNC(=O)O[C@H]4CCOC4)CC[C@@H]23)[C@@]2(C)CC[C@@H](O)C[C@@H]12	3
150 nM	81%	–	–	–	CC[C@H]1[C@@H](O)[C@@H]2[C@H](CC[C@]3(C)[C@@H]([C@H](C)CCNC(C)=O)CC[C@@H]23)[C@@]2(C)CC[C@@H](O)C[C@@H]12	–
230 nM	87%	–	–	–	CC[C@H]1[C@@H](O)[C@@H]2[C@H](CC[C@]3(C)[C@@H]([C@H](C)CCNS(=O)(=O)C4CC4)CC[C@@H]23)[C@@]2(C)CC[C@@H](O)C[C@@H]12	–
130 nM	95%	–	–	–	CC[C@H]1[C@@H](O)[C@@H]2[C@H](CC[C@]3(C)[C@@H]([C@H](C)CCCNC(N)=O)CC[C@@H]23)[C@@]2(C)CC[C@@H](O)C[C@@H]12	–
120 nM	100%	–	170%	80 nM	CC[C@H]1[C@@H](O)[C@@H]2[C@H](CC[C@]3(C)[C@@H]([C@H](C)CCNC(=O)O[C@@H]4CCOC4)CC[C@@H]23)[C@@]2(C)CC[C@@H](O)C[C@@H]12	–
280 nM	128%	–	–	–	CC[C@H]1[C@@H](O)[C@@H]2[C@H](CC[C@]3(C)[C@@H]([C@H](C)CCNS(C)(=O)=O)CC[C@@H]23)[C@@]2(C)CC[C@@H](O)C[C@@H]12	–
300 nM	162%	–	–	–	CC[C@H]1[C@@H](O)[C@@H]2[C@H](CC[C@]3(C)[C@@H]([C@H](C)CCNC(=O)OC(C)C)CC[C@@H]23)[C@@]2(C)CC[C@@H](O)C[C@@H]12	–
280 nM	138%	280 nM	174%	100 nM	CCOC(=O)NCC[C@@H](C)[C@H]1CC[C@H]2[C@@H]3[C@H](O)[C@H](CC)[C@@H]4C[C@H](O)CC[C@]4(C)[C@H]3CC[C@]12C	1
230 nM	142%	–	168%	110 nM	CC[C@H]1[C@@H](O)[C@@H]2[C@H](CC[C@]3(C)[C@@H]([C@H](C)CCNC(=O)OCc4cccs4)CC[C@@H]23)[C@@]2(C)CC[C@@H](O)C[C@@H]12	–
240 nM	226%	–	–	–	CC[C@H]1[C@@H](O)[C@@H]2[C@H](CC[C@]3(C)[C@@H]([C@H](C)CCC(=O)S)CC[C@@H]23)[C@@]2(C)CC[C@@H](O)C[C@@H]12	–
80 nM	115%	160 nM	–	–	CC[C@H]1[C@@H](O)[C@@H]2[C@H](CC[C@]3(C)[C@@H]([C@H](C)CCNC(=O)N4CC[C@H](O)C4)CC[C@@H]23)[C@@]2(C)CC[C@@H](O)C[C@@H]12	2
300 nM	140%	–	–	–	CC[C@H]1[C@@H](O)[C@@H]2[C@H](CC[C@]3(C)[C@@H]([C@H](C)CCNC(=O)OC4CCCCC4)CC[C@@H]23)[C@@]2(C)CC[C@@H](O)C[C@@H]12	–
370 nM	129%	–	–	–	CC[C@H]1[C@@H](O)[C@@H]2[C@H](CC[C@]3(C)[C@@H]([C@H](C)CCCNC(=O)N4CC[C@H](O)C4)CC[C@@H]23)[C@@]2(C)CC[C@@H](O)C[C@@H]12	–
1000 nM	263%	–	–	–	CC[C@H]1[C@@H](O)[C@@H]2[C@H](CC[C@]3(C)[C@@H]([C@H](C)CCC(C)=O)CC[C@@H]23)[C@@]2(C)CC[C@@H](O)C[C@@H]12	–
150 nM	100%	–	–	–	CC[C@H]1[C@@H](O)[C@@H]2[C@H](CC[C@]3(C)[C@@H]([C@H](C)CCNC(=O)OC4CCC4)CC[C@@H]23)[C@@]2(C)CC[C@@H](O)C[C@@H]12	–
230 nM	104%	–	–	–	CC[C@H]1[C@@H](O)[C@@H]2[C@H](CC[C@]3(C)[C@@H]([C@H](C)CCNC(N)=O)CC[C@@H]23)[C@@]2(C)CC[C@@H](O)C[C@@H]12	–
300 nM	149%	–	–	–	CC[C@H]1[C@@H](O)[C@@H]2[C@H](CC[C@]3(C)[C@@H]([C@H](C)CCNC(=O)OC)CC[C@@H]23)[C@@]2(C)CC[C@@H](O)C[C@@H]12	–
